In publication PMC7265429, “Characterization of a new small-molecule inhibitor of HDAC6 in glioblastoma” (Cell Death & Disease, 2020):

Tested on: GNS166 cells
Assay: Microarray whole-transcriptome gene expression analysis
Format: cell-based, human
Settings: DMSO vs 5 µM SAHA, upregulated genes
Protocol: Whole-transcriptome analysis was performed from 300 ng of RNA using HuGene-2_0-st-v1 expression array (Affymetrix), which covers 48,226 transcripts. Raw data were first checked for quality purposes through the Affymetrix® Expression Console™ Software v1.4.1 and TAC software v4.0. Then, data were normalized using the Robust Multi-array Average (RMA) and analyzed by Limma tool. Probesets with FDR-corrected p-values smaller than 0.05 were selected. Functional enrichment on Gene Ontology (GO) biological processes was performed on a smaller subset of the differentially expressed genes (corrected p-value < 0.001) by means of Broad Institute GSEA. […] The data that support this study have been deposited in NCBI´s Gene Expression Omnibus and are accessible through GEO series accession number GSE143887.

O=C(CCCCCCC(=O)Nc1ccccc1)NO [SAHA, Suberoylanilide hydroxamic acid]
logFC NMUR2 (transcript TC0500012531.hg.1): 2.3
logFC PIM1 (transcript TC0600007862.hg.1): 1.267
logFC BCKDHB (transcript TC0600008632.hg.1): 0.8913
logFC SLC16A10 (transcript TC0600009143.hg.1): 1.06
logFC TBPL1 (transcript TC0600009508.hg.1): 0.8103
logFC STK38 (transcript TC0600011661.hg.1): 0.8577
logFC SOGA3 (transcript TC0600013119.hg.1): 1.659
logFC STX7 (transcript TC0600013193.hg.1): 1.104
logFC CYB5R4 (transcript TC0600014148.hg.1): 0.9356
logFC ARL4A (transcript TC0700006737.hg.1): 1.551
logFC AHR (transcript TC0700006795.hg.1): 1.0742
logFC C7orf57 (transcript TC0700007475.hg.1): 1.163
logFC PRKAR2B (transcript TC0700008745.hg.1): 1.383
logFC ANKRD7 (transcript TC0700008898.hg.1): 1.335
logFC SND1 (transcript TC0700009020.hg.1): 0.9855
logFC FAM71F1 (transcript TC0700009060.hg.1): 1.462
logFC DGKB (transcript TC0700010327.hg.1): 0.979
logFC TMEM60 (transcript TC0700011601.hg.1): 0.8857
logFC FAM3C (transcript TC0700012427.hg.1): 0.9259
logFC IQUB (transcript TC0700012456.hg.1): 1.539
logFC RASA4 (transcript TC0700013603.hg.1): 1.334
logFC KIAA1456 (transcript TC0800006802.hg.1): 1.838
logFC PDGFRL (transcript TC0800006873.hg.1): 1.146
logFC PLAT (transcript TC0800010275.hg.1): 1.063
logFC PAG1 (transcript TC0800010926.hg.1): 1.472
logFC EXT1 (transcript TC0800011579.hg.1): 1.229
logFC SLC26A7 (transcript TC0800012325.hg.1): 0.8985
logFC PSAT1 (transcript TC0900007667.hg.1): 0.8807
logFC MLLT3 (transcript TC0900009679.hg.1): 1.79
logFC APBA1 (transcript TC0900010350.hg.1): 1.1769
logFC NR6A1 (transcript TC0900011501.hg.1): 1.227
logFC ALDH1A1 (transcript TC0900012245.hg.1): 1.351
logFC CDC14B (transcript TC0900012256.hg.1): 1.18
logFC BAMBI (transcript TC1000007132.hg.1): 1.194
logFC DNAJC1 (transcript TC1000010006.hg.1): 1.349
logFC ZNF215 (transcript TC1100006749.hg.1): 1.332
logFC GRIA4 (transcript TC1100008948.hg.1): 1.769
logFC C11orf88 (transcript TC1100009023.hg.1): 1.468
logFC SIK2 (transcript TC1100009026.hg.1): 0.9192
logFC NRGN (transcript TC1100009398.hg.1): 0.9705
logFC FZD4 (transcript TC1100011867.hg.1): 1.1951
logFC CCDC82 (transcript TC1100012052.hg.1): 0.8598
logFC IL18 (transcript TC1100012318.hg.1): 1.544
logFC CDON (transcript TC1100012722.hg.1): 2.237
logFC FAM89B (transcript TC1100013043.hg.1): 0.8784
logFC IGF2 (transcript TC1100013131.hg.1): 1.158
logFC C12orf60 (transcript TC1200006948.hg.1): 1.183
logFC ARNTL2 (transcript TC1200007147.hg.1): 1.2211
logFC GDF11 (transcript TC1200007809.hg.1): 1.519
logFC TMTC2 (transcript TC1200008322.hg.1): 1.0601
logFC TMTC3 (transcript TC1200008373.hg.1): 1.159
logFC TXNRD1 (transcript TC1200008675.hg.1): 0.8282
logFC P2RX7 (transcript TC1200009157.hg.1): 1.148
logFC RHEBL1 (transcript TC1200010612.hg.1): 1.826
logFC ATP2B1 (transcript TC1200011474.hg.1): 1.035
logFC LRRC63 (transcript TC1300007085.hg.1): 1.37
logFC SLC46A3 (transcript TC1300008468.hg.1): 1.1281
logFC UBL3 (transcript TC1300008497.hg.1): 0.9113
logFC LCP1 (transcript TC1300008840.hg.1): 1.339
logFC KLF12 (transcript TC1300009249.hg.1): 1.022
logFC SLITRK1 (transcript TC1300009376.hg.1): 1.004
logFC FOXG1 (transcript TC1400006791.hg.1): 0.91
logFC SOCS4 (transcript TC1400007221.hg.1): 0.9561
logFC ARID4A (transcript TC1400007307.hg.1): 0.9227
logFC SLC7A8 (transcript TC1400008705.hg.1): 1.877
logFC GCH1 (transcript TC1400009239.hg.1): 1.069
logFC KLHL28 (transcript TC1400010737.hg.1): 1.205
logFC TMOD2 (transcript TC1500007238.hg.1): 1.505
logFC LRRC49 (transcript TC1500007735.hg.1): 1.1742
logFC DENND4A (transcript TC1500009804.hg.1): 1.04
logFC UACA (transcript TC1500009921.hg.1): 1.398
logFC RGMA (transcript TC1500010501.hg.1): 0.8186
logFC YPEL3 (transcript TC1600009952.hg.1): 1.349
logFC ACSM3 (transcript TC1600011362.hg.1): 1.318
logFC NLK (transcript TC1700007344.hg.1): 1.006
logFC NGFR (transcript TC1700008209.hg.1): 1.322
logFC DYNLL2 (transcript TC1700008418.hg.1): 0.9396
logFC MYO1D (transcript TC1700010358.hg.1): 1.521
logFC MMD (transcript TC1700011181.hg.1): 0.9396
logFC CBX4 (transcript TC1700011953.hg.1): 1.178
logFC UNC13A (transcript TC1900009984.hg.1): 2.076
logFC KIAA1683 (transcript TC1900010008.hg.1): 1.003
logFC DIRAS1 (transcript TC1900011842.hg.1): 0.9114
logFC TGM2 (transcript TC2000009058.hg.1): 1.058
logFC KCNQ2 (transcript TC2000009809.hg.1): 1.266
logFC SRXN1 (transcript TC2000009960.hg.1): 0.9857
logFC SH3BGR (transcript TC2100007166.hg.1): 0.8256
logFC ADAMTS1 (transcript TC2100007821.hg.1): 1.343
logFC TIMP3 (transcript TC2200007150.hg.1): 0.905
